Reference: patent US8420819B2, “Process for optimizing the particle size of an active pharmaceutical ingredient by crystallization” (Boehringer Ingelheim International GmbH, priority 2009, dated 2013)

How the values were obtained:
[1] = Powder properties (flowability, bulk density) of crystallized particles; type: physicochemical; details: MEK/heptane process compared to particles produced from other solvent systems
[2] = Particle size of co-crystal batches, measured by Sympatec laser light diffraction; type: physicochemical; details: for Particle Size D10: scale-up batches from MEK/heptane crystallization, Sympatec laser light diffraction

powder properties (flowability, bulk density) [1]: excellent powder properties | D90 ([2]; MEK/heptane, initial concentration approximately 0.11-0.14 g/mL, seeded, high supersaturation): < 10 μm | D90 ([2]; approximately 1.0 wt % water in the solution (between about 0.7% and 1.2%) (FIG. 2)): 25-30 μm | particle size of the product, D90 ([2]; crystallization as part of the synthesis, from acetic acid or anisole solvate, 50.0 g, KF <0.2 wt %): about 7 μm | D90 ([2]; crystallization with 0.1 wt % water (FIG. 1)): 6 μm | D90 ([2]; crystallization with 1.1 wt % water (FIG. 2)): 26 μm | D90 ([2]; crystallization with 2.0 wt % water (FIG. 3)): 50 μm | D90 ([2]; crystallization with <0.5 wt % water in the solution (FIG. 1)): 5-10 μm | Particle Size D10 ([2]; listed as Kilo lab batch, 1.8 kg, from acetic acid solvate): 1.19 μm | Particle Size D10 ([2]; listed as Lab batch 1 from acetic acid solvate): 1.29 μm | Particle Size D10 ([2]; listed as Lab batch 2 from acetic acid solvate): 1.28 μm | Particle Size D10 ([2]; listed as Lab batch 3 from acetic acid solvate): 1.54 μm | Particle Size D10 ([2]; listed as Lab batch from new synthesis from acetic acid solvate): 1.17 μm | Particle Size D10 ([2]; listed as Lab batch, from anisole solvate): 1.31 μm | Particle Size D10 ([2]; listed as Pilot plant batch A, 11 kg, from anisole solvate): 1.61 μm | Particle Size D10 ([2]; listed as Pilot plant batch B, 22 kg, from anisole solvate): 1.67 μm | Particle Size D10 ([2]; listed as Pilot plant batch, 9 kg, from acetic acid solvate): 1.26 μm | particle size of the product, D90 ([2]; standalone re-crystallization process, 50.0 g co-crystal, KF ≦0.2 wt %): about 7 μm
SMILES: CCS(=O)(=O)c1cc2cc(C[C@](O)(CC(C)(C)c3ccc(F)cc3C(N)=O)C(F)(F)F)[nH]c2cn1.O=P(O)(O)O [2-[(3R)-3-(5-ethanesulfonyl-1H-pyrrolo[2,3-c]pyridin-2-ylmethyl)-4,4,4-trifluoro-3-hydroxy-1,1-dimethylbutyl]-5-fluorobenzamide phosphoric acid co-crystal]
